Test results from patent publication US6828350B1, “Modulators of cysteine protease” (Exegenics Inc., priority 1997, dated 2004).
Several values for one entry are separate records, joined by “and”; a condition that tells them apart may be missing. Identical values can stand only once.

Test system: Hl-Hela cells
Assay: Cytotoxicity by XTT assay (treated, mock-infected cells)
Details: read-out: TC50; Format 1; concentration that retards cell growth by 50%, mock-infected Hl-Hela cells

Row | SMILES | CC50 [µM]
1 | COc1ccc(C(=O)c2ccccc2O)c(O)c1 [compound 1] | 50 ± 10
2 | O=Cc1c(O)cc(O)cc1O [compound 34] | 410 ± 30

Test system: not listed separately
Assay: as above
Details: human, H1-HeLa cells (ATCC), mock-infected

Row | SMILES | CC50 [µM]
3 | CC(=O)c1c(O)cccc1OCC(N)=O [SA#121, 2-(2-acetyl-3-hydroxyphenoxy)-acetamide] | 425 ± 8
4 | CC(=O)c1cc(F)ccc1O [compound 27] | > 1250
5 | CC(=O)c1cc(C)cc([N+](=O)[O-])c1O [compound 30] | 67 ± 8
6 | CC(=O)c1c(O)cc(O)cc1O [SA#110] | 548 ± 27

Target: T1, Apopain (caspase-3) (Homo sapiens, UniProt P42574)
T1 construct: purchased Bio-rad FluorAce Apopain Assay Kit (booklet 4100119)
T1 sequence (P42574 29-175 limits assumed): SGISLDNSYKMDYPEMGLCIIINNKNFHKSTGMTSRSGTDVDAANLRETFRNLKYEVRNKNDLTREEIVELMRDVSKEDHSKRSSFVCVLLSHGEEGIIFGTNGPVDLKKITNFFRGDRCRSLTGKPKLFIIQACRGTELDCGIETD
T1 sequence (P42574 176-277 limits assumed): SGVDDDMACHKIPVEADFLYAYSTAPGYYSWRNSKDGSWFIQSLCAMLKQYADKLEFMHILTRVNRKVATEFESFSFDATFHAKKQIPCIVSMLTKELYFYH
Assay: Apopain (Caspase-3) Regulation Assay (FluorAce Apopain Assay Kit)
Type: biochemical
Details: Apopain modulation: Inhibitor or Activator
Experimental: VI: Apopain (Caspase-3) Regulation Assay
The FluorAce™ Apopain Assay Kit (Bio-rad) was employed in multiwell format. Compounds assayed were diluted 5-fold in distilled water (from stock solutions in ethanol or DMSO) and centrifuged (5′, 14K rpm). 10 μL of the supernatant was further diluted in wells containing 100 μL distilled water and 40 μL 6×Buffer (41.7 mM PIPES, pH 7.4, 8.3 mM EDTA, 0.42% CHAPS, 20.8 mM DTT). This process was carried out twice to yield duplicate wells for each compound. Control wells were prepared by addition of EtOH and DMSO (5-fold diluted in distilled water) into wells containing 6×Buffer and distilled water (40 μL and 100 μL, respectively), to form 8 wells with each solvent. Enzyme (stock solution 10-fold diluted in distilled water, see Bio-rad booklet 4100119) was added to one set of compound-containing cells and to 8 control wells (4 with ethanol and 4 with DMSO). The plate was preincubated for ˜80′ at 27°-28° C. Substrate (Z-DEVD-AFC, 490 μM, 40 μL) was then added to all wells. The plate was left at room temperature and fluorescence (360/40↑530/20↓) was measured at several time points (FL500 fluorimetric reader, Bio-tek instruments). Fluorescence at enzyme-containing wells was background-subtracted at each time point and initial rates were determined by linear regression (typically R^2>0.97). Percentage inhibition and activation was determined by relating the slope with compound to the control slope (with appropriate solvent). IC50 values are extrapolated.

Row | Activity | SMILES
7 | Inhibitor | CC(=O)c1c(O)c(Cl)cc(Cl)c1O [SA#109]
8 | Inhibitor | O=Cc1cc([N+](=O)[O-])ccc1O [compound 46]
9 | Activator | CCCCCC(=O)c1c(O)c(Cl)c(OC)c(Cl)c1O [SA#15]
10 | Activator | CC(=O)c1c(O)cccc1O [compound 9]
11 | Activator | O=Cc1cc(I)cc(I)c1O [compound 47]
12 | Inhibitor | CC(=O)c1cccc(C#N)c1O [SA#51]

Row | SMILES | Activity
13 | CC(=O)c1cc(F)ccc1O [compound 27] | Inhibitor
14 | CC(=O)c1cc(C)cc([N+](=O)[O-])c1O [compound 30] | Inhibitor
15 | CC(=O)c1c(O)cc(O)cc1O [SA#110] | Inhibitor

Test system: HRV 1A
Assay: Antiviral assay, XTT method, HRV 1A
Type: cell-based
Details: Format 1

Row | SMILES | IC50 [µM]
16 | CC(=O)c1c(O)cccc1OCC(N)=O [SA#121, 2-(2-acetyl-3-hydroxyphenoxy)-acetamide] | 198
17 | O=C(c1ccccc1O)c1cc(Cl)ccc1O [compound 137] | 6.2

Same assay, conditions: Format 2

Row | IC50 [µM] | SMILES
18 | 43 ± 9 | O=C(c1ccccc1O)c1ccccc1O [compound 131]
19 | 25 ± 12 | O=C(c1ccccc1O)c1cc(Br)ccc1O [compound 142]

Test system: HRV 14
Assay: Antiviral assay, XTT method, HRV 14
Type: cell-based
Details: HRV 14; Format 1; restores 50% of viral-caused decrease in cell viability

Row | SMILES | IC50 [µM]
20 | CC(=O)c1c(O)cccc1OCC(N)=O [SA#121, 2-(2-acetyl-3-hydroxyphenoxy)-acetamide] | 189
21 | CCCCCCCCNC(=O)c1cc([N+](=O)[O-])cc([N+](=O)[O-])c1O [SA#128] | 152
22 | CC(=O)c1cc(F)ccc1O [compound 27] | 444
23 | CC(=O)c1cc(C)cc([N+](=O)[O-])c1O [compound 30] | 55
24 | O=C(NCc1ccccc1)c1cc([N+](=O)[O-])cc([N+](=O)[O-])c1O [SA#120] | 30
25 | COc1ccc(C(=O)c2ccccc2O)c(O)c1 [compound 1] | 16
26 | O=C(c1ccccc1O)c1ccccc1O [compound 131] | 0.6
27 | O=C(c1ccccc1O)c1cc(Cl)ccc1O [compound 137] | 0.6
28 | O=Cc1c(O)cc(O)cc1O [compound 34] | 94
29 | CC(=O)c1c(O)cc(O)cc1O [SA#110] | 192

Same assay, conditions: HRV 14; Format 2

Row | IC50 | SMILES
30 | 130 ± 40 µM | Cc1cc(O)c(C(=O)c2ccccc2O)cc1Cl [compound 144]
31 | 31 ± 6 µM | CCCCCCCCNC(=O)c1cc([N+](=O)[O-])cc([N+](=O)[O-])c1O [SA#128]
32 | 590 ± 320 µM | CC(=O)c1c(O)c(Cl)cc(Cl)c1O [SA#109]
33 | 40 ± 30 µM | CCCCCC(=O)c1ccc(O)cc1O [compound 114]
34 | 27 ± 25 µM | O=c1cc(-c2ccccc2)oc2c(Cl)c(O)c(Cl)c(O)c12 [compound 100]
35 | 250 ± 90 µM | O=c1cc(-c2ccccc2)oc2cc(O)cc(O)c12 [compound 83]
36 | 40 ± 33 µM | O=C(NCc1ccccc1)c1cc([N+](=O)[O-])cc([N+](=O)[O-])c1O [SA#120]
37 | 210 ± 170 µM | CC(=O)c1ccccc1O [compound 6]
38 | 170 ± 100 µM | O=Cc1cc([N+](=O)[O-])ccc1O [compound 46]
39 | 5 ± 1 µM | CCCCCC(=O)c1c(O)c(Cl)c(OC)c(Cl)c1O [SA#15]
40 | 10 µM and 10.5 µM | O=C(c1ccccc1O)c1ccccc1O [compound 131]
41 | 110 ± 14 µM | CC(=O)c1c(O)cccc1O [compound 9]
42 | 160 ± 70 µM | CC(=O)c1cc(Cl)c(C)cc1O [compound 41]
43 | 12 ± 2 µM | O=Cc1cc(I)cc(I)c1O [compound 47]
44 | 59 ± 4 µM | O=C(c1ccccc1O)c1cc(Br)ccc1O [compound 142]

Row | SMILES | IC50
45 | CC(=O)c1c(O)cccc1OCC(N)=O [SA#121, 2-(2-acetyl-3-hydroxyphenoxy)-acetamide] | 120 ± 50 µM
46 | CC(=O)c1cc(C)cc([N+](=O)[O-])c1O [compound 30] | 31 ± 12 µM
47 | COc1ccc(C(=O)c2ccccc2O)c(O)c1 [compound 1] | 23 ± 20 µM

Test system: HRV 16
Assay: Antiviral assay, XTT method, HRV 16
Type: cell-based
Details: HRV 16; Format 1

Row | SMILES | IC50 [µM]
48 | CC(=O)c1c(O)cc(O)cc1O [SA#110] | 425

Same assay, conditions: HRV 16; Format 2

Row | IC50 [µM] | SMILES
49 | 2.1 ± 1.6 | Cc1cc(O)c(C(=O)c2ccccc2O)cc1Cl [compound 144]
50 | 4 ± 3 | CCCCCCCCNC(=O)c1cc([N+](=O)[O-])cc([N+](=O)[O-])c1O [SA#128]
51 | 70 ± 50 | COC(=O)c1c(O)cc(C)cc1O [compound 147]
52 | 8 ± 8 | Cc1ccc(O)c(C(=O)c2ccccc2O)c1 [compound 143]
53 | 70 ± 60 | CCCCCC(=O)c1ccc(O)cc1O [compound 114]
54 | 30 ± 8 | O=C(NCc1ccccc1)c1cc([N+](=O)[O-])cc([N+](=O)[O-])c1O [SA#120]
55 | 810 ± 180 | CC(=O)c1ccc(O)cc1O [compound 7]
56 | 1.4 ± 0.8 | CCCCCC(=O)c1c(O)c(Cl)c(OC)c(Cl)c1O [SA#15]
57 | 0.5 ± 0.4 | O=C(c1ccccc1O)c1ccccc1O [compound 131]
58 | 200 ± 110 | CC(=O)c1c(O)cccc1O [compound 9]
59 | 27 ± 27 | O=C(c1ccccc1O)c1cc(Br)ccc1O [compound 142]

Row | SMILES | IC50 [µM]
60 | CC(=O)c1c(O)cccc1OCC(N)=O [SA#121, 2-(2-acetyl-3-hydroxyphenoxy)-acetamide] | 420 ± 140
61 | CC(=O)c1cc(F)ccc1O [compound 27] | 47 ± 8
62 | CC(=O)c1cc(C)cc([N+](=O)[O-])c1O [compound 30] | 29 ± 24
63 | COc1ccc(C(=O)c2ccccc2O)c(O)c1 [compound 1] | 165 ± 134

Test system: Hl-Hela cells
Assay: not given
Details: not given

Row | SMILES | CC50 [µM]
64 | CCCCCCCCNC(=O)c1cc([N+](=O)[O-])cc([N+](=O)[O-])c1O [SA#128] | 429 ± 42
65 | O=C(NCc1ccccc1)c1cc([N+](=O)[O-])cc([N+](=O)[O-])c1O [SA#120] | 271 ± 22
